Data as given in US5426113A, “Method of preventing ulcer formation caused by nonsteroidal antiinflammatory drugs employing tetrazol-benzothiophene carboxamide compounds” (Warner-Lambert Company, priority 1994, dated 1995).
Entries after “also recorded” stand apart in the source; their conditions may differ. Like-named read-outs stand apart in the source and are kept apart here.

Columns and labels:
[1] = system: aspirin-induced gastric damage; test: Aspirin-induced gastric damage model (aspirin erosion model); assay type: in vivo; conditions: Rattus norvegicus, 0.5 h
Description: (§1) Fifteen minutes later, the animals were orally challenged with a single dose of 20 mg/kg indomethacin or 288 mg/kg aspirin. The animals were euthanized either at 4 hours (indomethacin) or 30 minutes (aspirin) later and the amount of gastric damage was assessed using image analysis.
Additional compounds of Formula I were tested in both the MAC-1 and the aspirin-induced gastric damage model (Table 1 and FIG. 4). Compounds which were active in the MAC-1 assay were also active in the gastric cytoprotective assay.

[2] = system: leukocyte adhesion in the animal's mesenteric post-capillary venules; test: NSAID (indomethacin)-induced leukocyte adhesion in rat mesenteric post-capillary venules, intravital microscopy; assay type: in vivo; conditions: indomethacin 10 minutes later
Source text: In these studies, oral treatment of rats with the NSAID indomethacin results in leukocyte adhesion in the animal's mesenteric post-capillary venules. This can be observed and measured using the technique of Intravital microscopy.

Plasma protein binding = assay type: in vitro ADME; conditions: rat, dog, sheep, and human
MAC-1 [3] = biological target: T1, MAC-1 (Homo sapiens, UniProt P05107+P11215); conditions: Wright C. D., et al., Keystone symposium 1994; cited from earlier work
T1 construct: endogenous in cells

[4] = system: NSAID-induced gastric damage; conditions: indomethacin and aspirin in rats; Low J. E., et al., 1993; cited from earlier work
[5] = system: human basophil histamine release; test: Human basophil histamine release stimulated with anti-IgE; assay type: cell-based
[6] = system: NSAID-induced gastric damage; test: Gastric cytoprotection in animal models (NSAID-induced gastric damage); assay type: in vivo; conditions: Rattus norvegicus, po; range over models
Description: as §1

[7] = system: animal disease models (asthma, allergy, arthritis, adult respiratory distress syndrome (ARDS), and cardiac reperfusion); test: Animal disease models (asthma, allergy, arthritis, ARDS, cardiac reperfusion); assay type: in vivo
[8] = system: stimulated acid secretion; test: Dimaprit-stimulated gastric fistula beagle dog model; assay type: in vivo
Source text: All parameters of gastric secretion appeared to be practically identical to those observed in the vehicle-only controls.

[9] = system: gastrointestinal tissues (stomach, small and large intestines); test: Whole body autoradiography after intravenous radiolabeled Example 1; assay type: in vivo
basal acid secretion = test: Shay rat model of basal acid secretion; assay type: in vivo; conditions: 50 or 200 mg/kg PO; pylorus ligated 1 hour later, acid content 4 hours later
Description: This has been tested in two different animal models. In the rat, Example 1 was tested in the Shay rat model of basal acid secretion. […] One hour later the animals were anesthetized and the pyloric sphincter to the stomach was ligated. The stomachs were removed 4 hours later and their acid content determined.

[10] = system: indomethacin-induced gastric damage; test: Indomethacin-induced gastric damage model; assay type: in vivo; conditions: Rattus norvegicus; oral, 15 minutes before 20 mg/kg indomethacin PO; assessed at 4 hours; read-out: ED50 cytoprotection, indomethacin
Description: as §1

[11] = system: human colonic adenocarcinoma (CaCO-2) cells
Description: [^14 C]Example 1 (22.9 μg/mL) was loaded on to either the apical (luminal) or basolateral (vascular) of the monolayer. Samples were obtained over 250 minutes from either side of the chamber in each experiment.

MAC-1 [12] = biological target: T1, MAC-1; test: Inhibition of MAC-1 mediated adhesion of FMLP-stimulated neutrophils to KLH-coated plastic; assay type: cell-based; conditions: 1 h, read-out: increase of MAC-1 dependent adherence to KLH-coated plastic
[13] = po, Table 1, aspirin-induced gastric damage model, read-out: Gastric Cytoprotective Effect (ED50, mg/kg PO)

T1 sequence (P05107 23-769, other chains not shown): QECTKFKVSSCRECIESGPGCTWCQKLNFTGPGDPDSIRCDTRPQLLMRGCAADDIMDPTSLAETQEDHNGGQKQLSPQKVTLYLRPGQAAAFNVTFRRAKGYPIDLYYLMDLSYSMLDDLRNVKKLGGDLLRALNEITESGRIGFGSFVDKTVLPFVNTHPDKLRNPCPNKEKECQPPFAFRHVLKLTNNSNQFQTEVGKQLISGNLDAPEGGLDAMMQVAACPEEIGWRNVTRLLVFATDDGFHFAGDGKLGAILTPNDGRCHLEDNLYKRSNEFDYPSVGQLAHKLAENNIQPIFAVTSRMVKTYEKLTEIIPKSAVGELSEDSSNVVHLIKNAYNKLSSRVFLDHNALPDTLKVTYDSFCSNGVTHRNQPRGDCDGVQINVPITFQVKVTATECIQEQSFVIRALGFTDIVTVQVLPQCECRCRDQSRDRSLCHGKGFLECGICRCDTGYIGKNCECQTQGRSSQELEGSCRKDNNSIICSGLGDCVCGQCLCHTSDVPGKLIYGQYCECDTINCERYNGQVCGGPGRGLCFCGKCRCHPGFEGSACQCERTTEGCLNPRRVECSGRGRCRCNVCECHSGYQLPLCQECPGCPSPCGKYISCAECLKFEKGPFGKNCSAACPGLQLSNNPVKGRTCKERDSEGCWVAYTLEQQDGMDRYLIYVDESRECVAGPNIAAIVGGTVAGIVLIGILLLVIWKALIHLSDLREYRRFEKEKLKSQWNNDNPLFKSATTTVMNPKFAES

COc1ccc2sc(C(=O)Nc3nnn[nH]3)c(OC(C)C)c2c1 [Example 1, 5-Methoxy-3-(1-methylethoxy)-N-1H-tetrazol-5-yl-benzo[b]thiophene-2-carboxamide]
ED50 ([1]; oral, 15 minutes before 288 mg/kg aspirin PO, assessed at 30 minutes, read-out: ED50 cytoprotection, aspirin): 0.01 mg/kg | inhibition of indomethacin-induced leukocyte adhesion ([2]; 1 mg/kg PO, 40 and 70 minute time point): no protective effects | inhibition of indomethacin-induced leukocyte adhesion ([2]; 5 or 10 mg/kg PO): complete inhibition | fraction unbound (Plasma protein binding): 0.01 to 0.02 | inhibition of neutrophil adhesion mediated by MAC-1 (MAC-1 [3]): can inhibit neutrophil adhesion; also recorded: inhibits neutrophil adhesion | gastric cytoprotective effects against damage caused by NSAIDs [4]: gastric cytoprotective effects | IC50 ([5]; Homo sapiens, anti-IgE stimulated, absence of serum): 300 nM | inhibitory effect on human basophil histamine release in the presence of serum ([5]; increasing concentration of serum (5-50%)): significantly reduced | ED50 [6]: 0.01 to 1 mg/kg | ED50 ([7]; IV): 5 to 20 mg/kg | ED50 ([7]; oral): 30 to 100 mg/kg | changes in gastric secretion ([8]; 0.1, 1.0, or 10 mg/kg PO, dimaprit-stimulated): no significant changes | time to radiolabeled material associated with gastrointestinal tissues ([9]; rapid): 5 min | levels of radiolabeled material associated with gastrointestinal tissues ([9]; stomach, small and large intestines): high levels | effect on basal acid secretion (basal acid secretion): no effect | ED50 [10]: 1 mg/kg | amount on apical side compared to basolateral side [11]: significantly more

COc1ccc2c(OC(C)C)c(C(=O)Nc3nnn[nH]3)sc2c1 [Example 2, 6-Methoxy-3-(1-methylethoxy)-N-1H-tetrazol-5-yl-benzo[b]thiophene-2-carboxamide]
ED50 [1, 13]: 1 mg/kg

COc1cc2sc(C(=O)Nc3nnn[nH]3)c(OC(C)C)c2cc1OC [Example 3, 5,6-Dimethoxy-3-(1-methylethoxy)-N-1H-tetrazol5-yl-benzo[b]thiophene-2-carboxamide]
ED50 [1, 13]: 1 mg/kg

COc1cc2sc(C(=O)Nc3nnn[nH]3)c(Oc3ccccc3)c2cc1OC [Example 4, 5,6-Dimethoxy-3-phenoxy-N-1H-tetrazol-5-yl-benzo[b]thiophene-2-carboxamide]
ED50 [1, 13]: 0.01 mg/kg

CSCC[C@H](NC=O)C(=O)N[C@@H](CC(C)C)C(=O)N[C@@H](Cc1ccccc1)C(=O)O [N-formyl-methionyl-leucyl-phenylalanine]
activation at 0.01 µM (MAC-1 [12]): 49%

CN(C)CCCSC(=N)N [dimaprit]
gastric secretion pH ([8]; constant intravenous 0.2 mg/kg hr): 1.0

CNC(=C[N+](=O)[O-])NCCSCc1ccc(CN(C)C)o1 [ranitidine]
increase in gastric pH ([8]; 1.5 mg/kg PO, dimaprit 0.2 mg/kg hr IV): 4 units
